Measured values from patent publication EP1731520A1, “Pyrrolo[2,3-d]pyrimidine derivatives which are antagonists of adenosine A1, A2A, and A3” (OSI Pharmaceuticals, Inc., priority 1999, dated 2001).

molecular target: human A1 receptor subtype (Homo sapiens, UniProt P30542); assay: not given; conditions: Table 15, Adenosine A1 Receptor Selective Compounds
Sequence (P30542 whole entry): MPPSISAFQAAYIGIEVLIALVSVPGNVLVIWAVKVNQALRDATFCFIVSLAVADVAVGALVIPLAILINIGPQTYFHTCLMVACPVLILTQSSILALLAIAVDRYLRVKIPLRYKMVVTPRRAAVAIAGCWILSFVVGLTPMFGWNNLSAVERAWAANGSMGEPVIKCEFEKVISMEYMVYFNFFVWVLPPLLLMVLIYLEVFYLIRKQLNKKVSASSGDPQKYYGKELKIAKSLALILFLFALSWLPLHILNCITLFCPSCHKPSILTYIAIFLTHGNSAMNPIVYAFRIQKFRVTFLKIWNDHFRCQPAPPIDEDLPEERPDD

Compound	Ki-A1 (selectivity versus other three subtypes)
CNC(=O)NC1CCCCC1Nc1nc(-c2ccccc2)nc2[nH]c(C)c(C)c12 (centres unmarked) [Compound 1500]	* (at least 10 times more selective than other three subtypes.)
CC(=O)NCCNc1nc(-c2ccccc2)nc2[nH]ccc12 [Compound 1501]	* (at least 10 times more selective than other three subtypes.)
CNC(=O)NCCNc1nc(-c2cccc(Cl)c2)nc2[nH]ccc12 [Compound 1502]	* (at least 10 times more selective than other three subtypes.)
O[C@H]1CC[C@H](Nc2nc(-c3ccccc3)nc3[nH]c(CN4CCOCC4)cc23)CC1 [Compound 1503]	* (at least 10 times more selective than other three subtypes.)
O[C@H]1CC[C@H](Nc2nc(-c3ccccc3)nc3[nH]c(CN4CCSCC4)cc23)CC1 [Compound 1504]	* (at least 10 times more selective than other three subtypes.)

same assay, conditions: read-out: Al Binding Ki; Table 6, Effect of N6-Substituent

Compound	Ki
Cc1[nH]c2nc(-c3ccccc3)nc(NC3CCC(NS(C)(=O)=O)CC3)c2c1C (centres unmarked) [Compound 604]	> 0.01 µM
Cc1[nH]c2nc(-c3ccccc3)nc(NC3CCC(OC(=O)c4ccccc4)CC3)c2c1C (centres unmarked) [Compound 611]	0.786 µM
Cc1[nH]c2nc(-c3ccccc3)nc(N[C@@H]3C[C@@H](O)[C@@H](O)C3)c2c1C [Compound 616]	0.0343 µM

same assay, conditions: read-out: Al Binding Ki; Table 7, Effect of C2-Substituent

Compound	Ki
Cc1[nH]c2nc(C(C)C)nc(N[C@H]3CC[C@H](O)CC3)c2c1C [Compound 708]	2.15 µM
Cc1[nH]c2nc(-c3ccccc3F)nc(N[C@H]3CC[C@H](O)CC3)c2c1C [Compound 709]	0.0487 µM

same assay, conditions: saturation and competition radio ligand binding

Compound	A1 receptor binding affinity compared with reference compounds 1318 or 1319
1-[6-(4-Hydroxy-4-phenyl-piperidin-1-yl-methyl)-2-phenyl-7H-pyrrolo[2,3-d]pyrimidin-4-yl]-pyrrolidine-2-carboxylic acid amide [Compound 1505]	equaled or surpassed
NC(=O)[C@@H]1CCCN1c1nc(-c2ccccc2)nc2[nH]ccc12 [Compound 1506]	equaled or surpassed
COCc1cc2c(N3CCC[C@H]3C(N)=O)nc(-c3ccccc3)nc2[nH]1 [Compound 1507]	equaled or surpassed
NC(=O)C1CC(O)CN1c1nc(-c2ccccc2)nc2[nH]ccc12 (centres unmarked) [Compound 1508, 4-Hydroxy-1-(2-phenyl-7H-pyrrolo[2,3-d]pyrimidin-4-yl]-pyrrolidine-2-carboxylic acid amide]	equaled or surpassed
NC(=O)[C@@H]1CCCN1c1nc(-c2ccccc2)nc2[nH]c(CCC(=O)O)cc12 [Compound 1509, 3-[4-((S)-2-Carbamoyl-pyrrolodin-1-yl)-2-phenyl-7H-pyrrolo[2,3-d]pyrimidin-6-yl]-propionic acid]	equaled or surpassed
NC(=O)COCc1cc2c(N3CCC[C@H]3C(N)=O)nc(-c3ccccc3)nc2[nH]1 [Compound 1510]	equaled or surpassed
NC(=O)C1CCCN1c1nc(-c2ccccc2)nc2[nH]c(C(=O)O)cc12 (centres unmarked) [Compound 1511, [4-(2-Carbamoylpyrrolidin-1-yl)-2-phenyl-7H-pyrrolo[2,3-d]pyrimidine-6-carboxylic acid]]	equaled or surpassed
Cc1cc2c(N3CCC[C@H]3C(N)=O)nc(-c3ccccc3)nc2[nH]1 [Compound 1512, 1-(6-methyl-2-phenyl-7H-pyrrolo[2,3-d]pyrimidine-4-yl)-(S)-pyrrolidine-2-carboxylic acid amide]	equaled or surpassed
NC(=O)C1CCCN1c1nc(-c2ccccc2)nc2[nH]c(COCCO)cc12 (centres unmarked) [Compound 1513, 1-[6-(2-Hydroxy-ethoxymethyl) -2-phenyl-7H-pyrrolo[2,3-d]pyrimidin-4-yl]-pyrrolidine-2-carb oxylic acid amide]	equaled or surpassed
OC1CCC(Nc2nc(-c3ccccc3)nc3[nH]c(Cn4ccnc4)cc23)CC1 (centres unmarked) [Compound 1514, 4-(6-Imidazol-1-ylmethyl-2-phenyl-7H-pyrrolo[2,3-d]pyrimidin-4-ylamino)-cyclohexanol]	equaled or surpassed
OCCOCc1cc2c(N[C@H]3CC[C@H](O)CC3)nc(-c3ccccc3)nc2[nH]1 [Compound 1516]	equaled or surpassed
COC(=O)c1cc2c(NC3CCC(O)CC3)nc(-c3ccccc3)nc2[nH]1 (centres unmarked) [Compound 1517, 4-(4-Hydroxy-cyclohexylamino) -2-phenyl-7H-pyrrolo[2,3-d]pyrimidine-6-carboxylic acid methyl ester]	equaled or surpassed
COC(=O)COCc1cc2c(N3CCCC3C(N)=O)nc(-c3ccccc3)nc2[nH]1 (centres unmarked) [Compound 1518, [4-(2-Carbamoyl-pyrrolidin-1-yl) -2-phenyl-7H-pyrrolo[2,3-d]pyrimidin-6-ylmethoxy]-acetic acid methyl ester]	equaled or surpassed
NC(=O)C1CCCN1c1nc(-c2ccccc2)nc2[nH]c(COCC(=O)O)cc12 (centres unmarked) [Compound 1519, [4-(2-Carbamoyl-pyrrolidin-1-yl) -2-phenyl-7H-pyrrolo[2,3-d]pyrimidin-6-ylmethoxy]-acetic acid]	equaled or surpassed
NC(=O)c1cc2c(NC3CCC(O)CC3)nc(-c3ccccc3)nc2[nH]1 (centres unmarked) [Compound 1520, 4-(4-Hydroxy-cyclohexylamino)-2-phenyl-7H-pyrrolo[2,3-d]pyrimidine-6-carboxylic acid amide]	equaled or surpassed

molecular target: T1, human A3 receptor subtype (Homo sapiens, UniProt P0DMS8); assay: Adenosine 3 receptor competition radioligand binding, [125I] AB-MECA, HEK293 membranes; conditions: Table 17, Adenosine A3 Receptor Selective Compounds
T1 sequence (P0DMS8 1-318): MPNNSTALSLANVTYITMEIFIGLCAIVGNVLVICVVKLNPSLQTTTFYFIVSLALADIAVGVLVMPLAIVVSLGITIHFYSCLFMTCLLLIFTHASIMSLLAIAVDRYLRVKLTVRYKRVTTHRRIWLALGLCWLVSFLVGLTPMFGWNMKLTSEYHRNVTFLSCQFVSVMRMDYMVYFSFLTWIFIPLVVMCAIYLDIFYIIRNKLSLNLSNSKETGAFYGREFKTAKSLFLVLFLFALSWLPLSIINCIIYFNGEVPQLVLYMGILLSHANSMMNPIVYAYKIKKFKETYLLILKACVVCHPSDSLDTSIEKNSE

Compound	Ki-A3 (selectivity versus other three subtypes)
CC(=O)NC(CNc1nc(-c2ccccc2)nc2[nH]c(C)c(C)c12)C(C)C (centres unmarked) [Compound 1700]	* (at least 10 times more selective than other three subtypes.)
CCN(CC)C(=O)NCCNc1nc(-c2ccccc2)nc2[nH]c(C)c(C)c12 [Compound 1701]	* (at least 10 times more selective than other three subtypes.)
CC(=S)NCCNc1nc(-c2ccccc2)nc2[nH]c(C)c(C)c12 [Compound 1702]	* (at least 10 times more selective than other three subtypes.)
OC1CCN(c2nc(-c3ccccc3)nc3[nH]c(-c4ccccc4)cc23)C1 (centres unmarked) [Compound 1703]	* (at least 10 times more selective than other three subtypes.)
CCNC(=O)NCCCNc1nc(-c2ccccc2)nc2[nH]c(C)c(C)c12 [Compound 1704]	* (at least 10 times more selective than other three subtypes.)
Cc1[nH]c2nc(-c3ccccc3)nc(NC3CCC(OC(=O)CN)C3)c2c1C (centres unmarked) [Compound 1705]	* (at least 10 times more selective than other three subtypes.)
OC1CCC(Nc2nc(-c3ccccc3)nc3[nH]ccc23)C1 (centres unmarked) [Compound 1706]	* (at least 10 times more selective than other three subtypes.)
